System: Pseudomonas aeruginosa (ATCC 9027)
Assay: agar well diffusion assay (antimicrobial activity)
Assay type: cell-based
Settings: ATCC9027, 100 μl of 100 mg/ml solution per well, 37° C., 24 hours of incubation, mean of three readings, read-out: zone of inhibition (diameter)
Text: Pseudomonas aeruginosa (ATCC 9027) strain was used as test organisms. The culture media, Nutrient Agar (NA), Nutrient Broth (NB) and Czapek Yeast Extract Agar (CYA) used for the growth of microorganisms, were purchased from Hi-Media. All other chemicals, including organic solvents used for the extraction of the plant metabolites, were of analytical grade.
The AP Extract 2, SX Extract 2, OS Extract 2, AP Extract 1, SX Extract 1 and OS Extract 1 were separately dissolved in 100% aqueous dimethylsulfoxide (DMSO) to obtain a final concentration of 100 mg/ml for each extract. 100 mg/ml solution of Chloramphenicol was prepared and used as a Positive control. Antimicrobial activity of the above mentioned extracts was determined, using the agar well diffusion assay method (Perez et al., 1990). Approximately 20 ml of molten and cooled media (NA and CYA) were poured in sterilized Petri dishes. The plates were left overnight at room temperature to check for any contamination to appear. The test organism was grown in nutrient broth for 24 hours. […]
Agar wells of 5 mm diameter were prepared with the help of a sterilized stainless steel cork borer. […] The antimicrobial activity of the extracts was taken on the basis of diameter of zone of inhibition, which was measured at cross-angles after 24 hours of incubation and the mean of three readings for each extract.

Structure (SMILES): O=C(N[C@H](CO)[C@H](O)c1ccc([N+](=O)[O-])cc1)C(Cl)Cl [positive standard, Chloramphenicol]
- zone of inhibition at 100000 µg/mL: 40 mm
